This is an account of results in patent US20170327598A1, “SINGLE DOMAIN ANTIBODIES DIRECTED AGAINST INTRACELLULAR ANTIGENS” (SINGH MOLECULAR MEDICINE, LLC, priority 2014, published 2017).

“And” between values parts separate entries of the source, which are not always exact repeats. Equal values may be shown once. Numbered stars: 1 amine (or outer) side, 2 acyl side, 3 side chain; on linkers, the order of the positions; unused ones are H or OH. Bridge positions count the residues as written; N and C are the ends. Square brackets hold non-standard residues; d marks the D form. Peptide text beside a SMILES is read from it. I, II: the chains in the order shown. Actinocin(9to1) = Cc1c2oc3c(C)ccc(C(=O)[*:1])c3nc-2c(C(=O)[*:2])c(N)c1=O; NMeV = CN[C@H](C(=O)O)C(C)C; Sar = CNCC(=O)O

The subject of the test is L929 cells. Briefly: Percent toxicity of control wells in L929 cells. In kind it is cell-based, mouse. Conditions: Actinomycin D only (no TNFα), sample replicates.

For the compound `Cc1c2oc3c(C)ccc(C(=O)N[C@@H]4C(=O)N[C@H](C(C)C)C(=O)N5CCC[C@H]5C(=O)N(C)CC(=O)N(C)[C@@H](C(C)C)C(=O)O[C@@H]4C)c3nc-2c(C(=O)N[C@@H]2C(=O)N[C@H](C(C)C)C(=O)N3CCC[C@H]3C(=O)N(C)CC(=O)N(C)[C@@H](C(C)C)C(=O)O[C@@H]2C)c(N)c1=O` [Actinomycin D] (I: T[dV]P[Sar][NMeV] / II: T[dV]P[Sar][NMeV]; ester I:1-I:C, II:1-II:C; linker I:N-II:N via Actinocin(9to1)), the “% Toxicity” value by setting is: (Assay 1) 18.6% and 5.4% and 2.3% and 3.5% and 0% (8×); (Assay 2) 2.3% and 0% (4×) and 10.4% and 0.4%.
